Results published in patent US20230000808A1, “COMPOSITIONS AND METHODS EXCLUDING OR WITH REDUCED GLUTAMINE FOR THE TREATMENT OF HEMOGLOBINOPATHIES AND THALASSEMIAS” (AXCELLA HEALTH INC., priority 2019, published 2023).

Key:
[1] = system: IL-6; test: LPS-induced IL-6 secretion in primary human monocyte-derived macrophages (ELISA); assay type: cell-based; parameters: Donor 1 IL-6 Measurements Mean: unit not given here; settings: for Donor 1 IL-6 Measurements Mean / Donor 2 IL-6 Measurements Mean / Donor 3 IL-6 Measurements Mean: LPS, baseline subtracted; for effect on LPS-induced IL-6 secretion: Two Way ANOVA Dunnett
Procedure: (§1) Primary human PMBC derived macrophages were seeded on day 0 at 3.0×10^4 cells per well in 96-well microplates (ThermoFisher) in Dulbecco's Modified Eagle Medium (DMEM) (Gibco) supplemented with penicillin-streptomycin (Hyclone) and 10% heat inactivated fetal bovine serum (HI-FBS) (Atlanta Bio) and incubated overnight at 37° C., 5% CO2. On day 1, cells were washed once with 150 μl per well DPBS (Gibco) and treated with 75 μl of: • a. […] The same medium described above with one amino acid at various concentrations including complete dropout. […] On day 3, the supernatant was collected and immediately frozen in −80° C. freezer. Cells were washed once with 150 μl DPBS and viability was assessed using the WST-8 Cell Proliferation Cytotoxicity Assay (Dojindo). […] Protein levels in supernatant samples were analyzed by ELISA for IL-6 and TNFα using commercially available kits (R&D Systems) according to manufacturer-supplied protocols.

[2] = system: TNFα; test: LPS-induced TNF-α secretion in primary human monocyte-derived macrophages (ELISA); assay type: cell-based; settings: for TNF-α Measurements Mean: baseline subtracted; for effect on LPS-induced TNF-α secretion: Two Way ANOVA Dunnett
Procedure: as §1

[3] = system: IL-6; test: Secreted IL-6 in HLMVEC treated with TNF-α (FirePlex); assay type: cell-based, human
In short: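 Primary human lung microvascular endothelial cells, after overnight attachment, were switched to medium with amino acid levels mimicking SCD patient blood, plus 0.5 ng/mL TNF-α with or without amino acid treatments at 20× mean physiological plasma concentrations. Supernatant IL-6 measured by FirePlex immunoassay, interpolated from a standard curve.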

[4] = system: ICAM-1; test: ICAM-1 cell integrated intensity in HLMVEC treated with TNF-α (immunofluorescence); assay type: cell-based, human; settings: for TNFα induced ICAM-1 expression levels in HLMVEC: 0.5 ng/mL TNF-α, amino acids at 20× HMDB, 24 hours
In short: (§2)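 Primary human lung microvascular endothelial cells, 24 h in medium with SCD-like amino acid profile plus 0.5 ng/mL TNF-α, with or without amino acids at 20× mean plasma level. Fixed, immunostained for ICAM-1 and VCAM-1; integrated intensity per cell by high-content imaging.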

[5] = system: VCAM-1; test: VCAM-1 cell integrated intensity in HLMVEC treated with TNF-α (immunofluorescence); assay type: cell-based, human; settings: for VCAM-1 expression in HLMVEC: 0.5 ng/mL TNF-α, amino acids at 20× HMDB, 24 hours
In short: as §2

[6] = HLMVEC + 0.5 ng/mL TNF-α, 24 h, amino acids 20x HMDB, Nac/Cit/Car 5 mM as bracketed

## CC(=O)N[C@@H](CS)C(=O)O [N-Acetyl Cysteine, N-acetylcysteine]
[1]; Donor 1, Conc. 0 X (baseline)
  Donor 1 IL-6 Measurements Mean: 0
[1]; Donor 1, Conc. 5 X
  Donor 1 IL-6 Measurements Mean: 308.1772
[1]; Donor 1, Conc. 10 X
  Donor 1 IL-6 Measurements Mean: −121.142
[1]; Donor 1, Conc. 20 X
  Donor 1 IL-6 Measurements Mean: −553.802
[1]; Donor 1, Conc. 40 X
  Donor 1 IL-6 Measurements Mean: −914.194
[1]; Donor 1
  effect on LPS-induced IL-6 secretion: significantly reduced
[1]; Donor 2, Conc. 0 X (baseline)
  Donor 2 IL-6 Measurements Mean: −2.4E−15
[1]; Donor 2, Conc. 5 X
  Donor 2 IL-6 Measurements Mean: −0.7946
[1]; Donor 2, Conc. 10 X
  Donor 2 IL-6 Measurements Mean: −9.751
[1]; Donor 2, Conc. 20 X
  Donor 2 IL-6 Measurements Mean: −24.9999
[1]; Donor 2, Conc. 40 X
  Donor 2 IL-6 Measurements Mean: −33.7585
[1]; Donor 2
  effect on LPS-induced IL-6 secretion: significantly reduced
[1]; Donor 3, Conc. 0 X (baseline)
  Donor 3 IL-6 Measurements Mean: −9.5E−15
[1]; Donor 3, Conc. 5 X
  Donor 3 IL-6 Measurements Mean: −70.3269
[1]; Donor 3, Conc. 10 X
  Donor 3 IL-6 Measurements Mean: −103.586
[1]; Donor 3, Conc. 20 X
  Donor 3 IL-6 Measurements Mean: −122.656
[1]; Donor 3, Conc. 40 X
  Donor 3 IL-6 Measurements Mean: −140.851
[1]; Donor 3
  effect on LPS-induced IL-6 secretion: significantly reduced
[2]; Donor 1, Conc. 5 X, LPS 0.15 ng/mL
  TNF-α Measurements Mean: −326.24
[2]; Donor 1, Conc. 10 X, LPS 0.15 ng/mL
  TNF-α Measurements Mean: −446.88
[2]; Donor 1, Conc. 20 X, LPS 0.15 ng/mL
  TNF-α Measurements Mean: −561.33
[2]; Donor 1, Conc. 40 X, LPS 0.15 ng/mL
  TNF-α Measurements Mean: −644.49
[2]; Donor 1
  effect on LPS-induced TNF-α secretion: significantly reduced
[2]; Donor 2, Conc. 5 X, LPS 0.15 ng/mL
  TNF-α Measurements Mean: −54.1596
[2]; Donor 2, Conc. 10 X, LPS 0.15 ng/mL
  TNF-α Measurements Mean: −70.8382
[2]; Donor 2, Conc. 20 X, LPS 0.15 ng/mL
  TNF-α Measurements Mean: −88.6528
[2]; Donor 2, Conc. 40 X, LPS 0.15 ng/mL
  TNF-α Measurements Mean: −103.984
[2]; Donor 2
  effect on LPS-induced TNF-α secretion: significantly reduced
[2]; Donor 3, Conc. 5 X, LPS 0.15 ng/mL
  TNF-α Measurements Mean: −33.6246
[2]; Donor 3, Conc. 10 X, LPS 0.15 ng/mL
  TNF-α Measurements Mean: −41.7266
[2]; Donor 3, Conc. 20 X, LPS 0.15 ng/mL
  TNF-α Measurements Mean: −48.4373
[2]; Donor 3, Conc. 40 X, LPS 0.15 ng/mL
  TNF-α Measurements Mean: −55.3093
[2]; Donor 3
  effect on LPS-induced TNF-α secretion: significantly reduced
[3]; [6]
  Secreted IL6 Median: −0.497
[4]
  TNFα induced ICAM-1 expression levels in HLMVEC: reduced levels of ICAM-1 expression to a lesser extent
[4]; [6]
  ICAM-1 Cell Integrated Intensity Median: −0.222
[5]
  VCAM-1 expression in HLMVEC: greatly reduced
[5]; [6]
  VCAM-1 Cell Integrated Intensity Median: −0.315

## NC(=O)CC[C@H](N)C(=O)O [Glutamine, L-glutamine]
[1]; Donor 1, Conc. 749 μM (baseline)
  Donor 1 IL-6 Measurements Mean: 0
[1]; Donor 1, Conc. 3747 μM
  Donor 1 IL-6 Measurements Mean: 291.5443
[1]; Donor 1, Conc. 11242 μM
  Donor 1 IL-6 Measurements Mean: 397.1745
[1]; Donor 1, Conc. 22484 μM
  Donor 1 IL-6 Measurements Mean: 440.1437
[1]; Donor 1
  effect on LPS-induced IL-6 secretion: increased
[1]; Donor 2, Conc. 749 μM (baseline)
  Donor 2 IL-6 Measurements Mean: 2.37E−15
[1]; Donor 2, Conc. 3747 μM
  Donor 2 IL-6 Measurements Mean: 22.52
[1]; Donor 2, Conc. 11242 μM
  Donor 2 IL-6 Measurements Mean: 63.31
[1]; Donor 2, Conc. 22484 μM
  Donor 2 IL-6 Measurements Mean: 34.39
[1]; Donor 2
  effect on LPS-induced IL-6 secretion: increased
[1]; Donor 3, Conc. 749 μM (baseline)
  Donor 3 IL-6 Measurements Mean: 3.79E−14
[1]; Donor 3, Conc. 3747 μM
  Donor 3 IL-6 Measurements Mean: 25.35
[1]; Donor 3, Conc. 11242 μM
  Donor 3 IL-6 Measurements Mean: 98.4903
[1]; Donor 3, Conc. 22484 μM
  Donor 3 IL-6 Measurements Mean: 108.5158
[1]; Donor 3
  effect on LPS-induced IL-6 secretion: significantly increased
[2]; Donor 1, Conc. 749 μM (baseline), LPS
  TNF-α Measurements Mean: 0
[2]; Donor 1, Conc. 3747 μM, LPS
  TNF-α Measurements Mean: −45.7
[2]; Donor 1, Conc. 11242 μM, LPS
  TNF-α Measurements Mean: −65.24
[2]; Donor 1, Conc. 22484 μM, LPS
  TNF-α Measurements Mean: −103.07
[2]; Donor 2, Conc. 749 μM (baseline), LPS
  TNF-α Measurements Mean: −9.5E−15
[2]; Donor 2, Conc. 3747 μM, LPS
  TNF-α Measurements Mean: 9.338
[2]; Donor 2, Conc. 11242 μM, LPS
  TNF-α Measurements Mean: 20.04
[2]; Donor 2, Conc. 22484 μM, LPS
  TNF-α Measurements Mean: 11.5
[2]; Donor 2
  effect on LPS-induced TNF-α secretion: increased
[2]; Donor 3, Conc. 749 μM (baseline), LPS
  TNF-α Measurements Mean: 0
[2]; Donor 3, Conc. 3747 μM, LPS
  TNF-α Measurements Mean: 1.936
[2]; Donor 3, Conc. 11242 μM, LPS
  TNF-α Measurements Mean: 18
[2]; Donor 3, Conc. 22484 μM, LPS
  TNF-α Measurements Mean: 29.14
[2]; Donor 3
  effect on LPS-induced TNF-α secretion: increased
[3]; 0.5 ng/mL TNF-α, amino acids at 20× HMDB, 24 hours
  IL-6 secretion from TNFα treated HLMVEC: increased
[4]
  TNFα induced ICAM-1 expression levels in HLMVEC: increased
[5]
  VCAM-1 expression in HLMVEC: increased
